This passage reports IC50 and inhibition results from ChEMBL document CHEMBL5625280, “Discovery of novel nucleoside derivatives as selective lysine acetyltransferase p300 inhibitors for cancer therapy” (Bioorg Med Chem Lett, 2024).

In one experiment the target is Histone acetyltransferase p300 (Homo sapiens, UniProt Q09472).
Sequence of Histone acetyltransferase p300 (Q09472 whole entry): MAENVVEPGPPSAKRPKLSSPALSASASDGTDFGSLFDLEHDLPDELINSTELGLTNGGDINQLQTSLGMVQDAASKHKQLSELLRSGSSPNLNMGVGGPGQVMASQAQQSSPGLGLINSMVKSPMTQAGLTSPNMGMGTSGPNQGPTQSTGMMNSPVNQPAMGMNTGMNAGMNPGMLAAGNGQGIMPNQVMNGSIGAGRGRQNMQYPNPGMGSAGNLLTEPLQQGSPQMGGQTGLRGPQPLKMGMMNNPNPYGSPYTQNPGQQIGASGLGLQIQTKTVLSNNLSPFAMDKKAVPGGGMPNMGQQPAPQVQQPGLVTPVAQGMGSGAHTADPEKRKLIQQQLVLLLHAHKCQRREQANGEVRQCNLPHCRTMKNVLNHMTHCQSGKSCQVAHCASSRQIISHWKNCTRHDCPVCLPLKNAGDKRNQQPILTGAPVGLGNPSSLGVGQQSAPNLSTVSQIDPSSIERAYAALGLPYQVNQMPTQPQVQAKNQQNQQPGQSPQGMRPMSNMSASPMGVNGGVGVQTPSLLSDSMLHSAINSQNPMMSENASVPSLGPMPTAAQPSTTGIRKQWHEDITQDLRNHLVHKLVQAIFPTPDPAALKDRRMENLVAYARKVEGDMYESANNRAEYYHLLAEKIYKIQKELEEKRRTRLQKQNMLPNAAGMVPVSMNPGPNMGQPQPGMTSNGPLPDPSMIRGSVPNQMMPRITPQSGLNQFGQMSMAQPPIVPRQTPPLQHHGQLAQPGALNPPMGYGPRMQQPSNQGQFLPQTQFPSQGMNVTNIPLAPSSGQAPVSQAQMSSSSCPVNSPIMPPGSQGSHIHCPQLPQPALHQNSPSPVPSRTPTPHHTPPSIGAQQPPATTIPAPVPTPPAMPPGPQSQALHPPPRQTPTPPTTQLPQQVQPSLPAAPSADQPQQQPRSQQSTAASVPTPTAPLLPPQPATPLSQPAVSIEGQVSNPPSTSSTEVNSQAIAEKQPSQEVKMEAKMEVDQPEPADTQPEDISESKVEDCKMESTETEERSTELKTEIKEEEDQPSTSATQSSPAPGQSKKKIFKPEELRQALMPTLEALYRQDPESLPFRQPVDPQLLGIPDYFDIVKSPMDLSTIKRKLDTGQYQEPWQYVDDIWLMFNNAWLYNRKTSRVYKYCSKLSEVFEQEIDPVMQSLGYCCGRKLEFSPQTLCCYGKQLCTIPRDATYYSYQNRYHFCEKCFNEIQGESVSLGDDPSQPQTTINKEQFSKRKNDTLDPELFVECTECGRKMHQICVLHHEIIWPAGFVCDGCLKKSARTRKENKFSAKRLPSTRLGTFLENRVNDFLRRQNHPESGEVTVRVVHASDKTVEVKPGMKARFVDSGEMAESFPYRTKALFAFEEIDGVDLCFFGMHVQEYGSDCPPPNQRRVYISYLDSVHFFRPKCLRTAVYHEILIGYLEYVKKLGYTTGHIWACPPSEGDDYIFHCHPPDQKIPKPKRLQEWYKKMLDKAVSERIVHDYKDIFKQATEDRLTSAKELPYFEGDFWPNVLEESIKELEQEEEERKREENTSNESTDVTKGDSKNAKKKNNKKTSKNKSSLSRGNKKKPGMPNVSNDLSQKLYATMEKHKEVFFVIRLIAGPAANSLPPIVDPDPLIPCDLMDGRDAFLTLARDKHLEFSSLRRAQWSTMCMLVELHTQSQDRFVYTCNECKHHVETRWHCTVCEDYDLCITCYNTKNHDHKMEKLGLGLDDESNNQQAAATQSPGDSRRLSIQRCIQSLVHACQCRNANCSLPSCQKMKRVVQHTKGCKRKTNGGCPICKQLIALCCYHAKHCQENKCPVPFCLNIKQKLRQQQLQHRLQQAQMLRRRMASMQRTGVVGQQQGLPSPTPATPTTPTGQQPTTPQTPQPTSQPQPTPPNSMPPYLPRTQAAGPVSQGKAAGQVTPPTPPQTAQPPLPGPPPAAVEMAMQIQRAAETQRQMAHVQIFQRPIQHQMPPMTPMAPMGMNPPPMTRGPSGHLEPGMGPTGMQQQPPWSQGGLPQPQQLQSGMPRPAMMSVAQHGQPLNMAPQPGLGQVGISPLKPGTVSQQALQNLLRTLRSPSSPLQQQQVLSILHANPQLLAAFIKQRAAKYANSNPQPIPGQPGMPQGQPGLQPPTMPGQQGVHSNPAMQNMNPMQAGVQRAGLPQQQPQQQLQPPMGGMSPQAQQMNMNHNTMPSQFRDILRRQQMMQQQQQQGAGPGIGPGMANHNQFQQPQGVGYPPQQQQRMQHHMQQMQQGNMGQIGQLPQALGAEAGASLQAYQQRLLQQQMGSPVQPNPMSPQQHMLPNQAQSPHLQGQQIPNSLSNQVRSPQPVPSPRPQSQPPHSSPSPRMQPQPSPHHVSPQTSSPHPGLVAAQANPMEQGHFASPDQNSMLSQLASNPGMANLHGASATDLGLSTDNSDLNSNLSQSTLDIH
Conditions: not given
`Nc1ccn(Cc2ccc(-c3cn(CCCC(=O)O)nn3)cc2)c(=O)n1` yielded an IC50 of 560 nM. As for `Nc1ccn(Cc2ccc(-c3cn(CCCCCCC(=O)O)nn3)cc2)c(=O)n1`, the IC50 stood at 960 nM. For the compound `CCOC(=O)CCCCCCn1cc(-c2ccc(Cn3ccc(N)nc3=O)cc2)nn1`, the IC50 was found to be 640 nM. For the compound `Nc1ccn(Cc2ccc(-c3cn(CCCCc4ccc(C(=O)O)cc4)nn3)cc2)c(=O)n1`, the concentration for half-maximal inhibition (IC50) was 1140 nM. Same read-out and setting: under `CCOC(=O)CCCCCn1cc(-c2ccc(Cn3ccc(N)nc3=O)cc2)nn1` stands 600 nM; under `Nc1ccn(Cc2ccc(-c3cn(CCCCC(=O)O)nn3)cc2)c(=O)n1`, 240 nM. Same read-out and setting: in the case of `Nc1ccn(Cc2ccc(-c3cn(CCCCCC(=O)O)nn3)cc2)c(=O)n1` it was 4120 nM; in that of `CCOC(=O)CCCCCn1cc(Cn2cnc(N)nc2=O)nn1`, 480 nM; in that of `CCOC(=O)CCCCCCn1cc(-c2ccc(Cn3cnc(N)nc3=O)cc2)nn1`, 650 nM.

With `CCOC(=O)CCCCCn1cc(-c2ccc(Cn3cnc(N)nc3=O)cc2)nn1`, the 50% inhibitory concentration (IC50) was 530 nM. In the case of `CCOC(=O)CCCCCn1cc(Cn2cc(F)c(N)nc2=O)nn1`, the half-maximal inhibitory concentration (IC50) amounted to 800 nM. Same read-out and setting: under `CCOC(=O)CCCn1cc(-c2ccc(Cn3ccc(N)nc3=O)cc2)nn1` stands 360 nM; under `COC(=O)c1ccc(CCCCn2cc(-c3ccc(Cn4cnc(N)nc4=O)cc3)nn2)cc1`, 360 nM; under `COC(=O)c1ccc(CCCCn2cc(-c3ccc(Cn4cc(F)c(N)nc4=O)cc3)nn2)cc1`, 370 nM. `CCOC(=O)CCCCCCn1cc(-c2ccc(Cn3cc(C)c(N)nc3=O)cc2)nn1` yielded a 50% inhibitory concentration (IC50) of 770 nM.

Take `Nc1ccn(Cc2cn(CCCCc3ccc(C(=O)O)cc3)nn2)c(=O)n1`: it took 4570 nM to reach half-maximal inhibition (IC50). Still for that read-out and setting: in the case of `CCOC(=O)CCCCCn1cc(Cn2cc(C)c(N)nc2=O)nn1` it was 1100 nM; in that of `CCOC(=O)CCCCn1cc(-c2ccc(Cn3cnc(N)nc3=O)cc2)nn1`, 880 nM. Still for that read-out and setting: in the case of `CCOC(=O)CCCCCCn1cc(-c2ccc(Cn3cc(F)c(N)nc3=O)cc2)nn1` it was 2600 nM; in that of `CCOC(=O)CCCCn1cc(Cn2cnc(N)nc2=O)nn1`, 7690 nM; in that of `Nc1nc(=O)n(Cc2ccc(-c3cn(CCCCc4ccc(C(=O)O)cc4)nn3)cc2)cc1F`, 250 nM.

Regarding `CCOC(=O)CCCCn1cc(-c2ccc(Cn3ccc(N)nc3=O)cc2)nn1`, the IC50 stood at 560 nM.

Consider `CCOC(=O)CCCCCCn1cc(-c2ccc(Cn3cnc4c(N)ncnc43)cc2)nn1`, for which half-maximal inhibition (IC50) required 9900 nM. The same measure, in the same setting: under `CCOC(=O)CCCCCCn1cc(-c2ccc(Cn3ccc(=O)[nH]c3=O)cc2)nn1` stands 2000 nM; under `CCOC(=O)CCCn1cc(-c2ccc(Cn3cnc(N)nc3=O)cc2)nn1`, 4590 nM. In the case of `CCOC(=O)CCCCCCn1cc(Cn2cnc(N)nc2=O)nn1`, half-maximal inhibition (IC50) was put at 430 nM. `COC(=O)c1ccc(CCCCn2cc(-c3ccc(Cn4ccc(N)nc4=O)cc3)nn2)cc1` gave a half-maximal inhibitory concentration (IC50) of 180 nM. In the case of `CCOC(=O)CCCCCn1cc(Cn2ccc(N)nc2=O)nn1`, the IC50 was determined as 7800 nM.

In turn, `COC(=O)c1ccc(CCCCn2cc(-c3ccc(Cn4cc(C)c(N)nc4=O)cc3)nn2)cc1` returned a 50% inhibitory concentration (IC50) of 240 nM.

In another experiment the test system is NCI-H520. The experiment in a line: Antiproliferative activity against human NCI-H520 cells assessed as inhibition of cell growth incubated for 72 hrs by MTT assay. The class given is functional, cell-based. To be noted: NCI-H520, 72 h.
In the case of `COC(=O)c1ccc(CCCCn2cc(-c3ccc(Cn4cc(F)c(N)nc4=O)cc3)nn2)cc1`, the half-inhibitory concentration (IC50) came out at 23200 nM. With `COC(=O)c1ccc(CCCCn2cc(-c3ccc(Cn4ccc(N)nc4=O)cc3)nn2)cc1`, the 50% inhibitory concentration (IC50) stood at 12200 nM.

The subject of another experiment is MDA-MB-231. The experiment in a line: Antiproliferative activity against human MDA-MB-231 cells assessed as inhibition of cell proliferation at 10 uM incubated for 72 hrs by MTT assay relative to control. The class given is functional.
Conditions: not given
For `COC(=O)c1ccc(CCCCn2cc(-c3ccc(Cn4cc(C)c(N)nc4=O)cc3)nn2)cc1`, the inhibition at 10 µM is more than 50%.

Broadly, the IC50 is the concentration needed to halve the response being measured. Usually inhibition stands for the share of the control response that was lost under treatment.
